# In patent publication US20080312277A1, “Gpr41 and Modulators Thereof for the Treatment of Insulin-Related Disorders” (priority 2004, published 2008):
# How the values were obtained:
# GPR41 = target: T1, GPR41 (Homo sapiens, UniProt O14843); conditions: Brown et al., J. Biol. Chem. 278:11312-11319 (2003); cited from earlier work
# T1 sequence (O14843 1-346): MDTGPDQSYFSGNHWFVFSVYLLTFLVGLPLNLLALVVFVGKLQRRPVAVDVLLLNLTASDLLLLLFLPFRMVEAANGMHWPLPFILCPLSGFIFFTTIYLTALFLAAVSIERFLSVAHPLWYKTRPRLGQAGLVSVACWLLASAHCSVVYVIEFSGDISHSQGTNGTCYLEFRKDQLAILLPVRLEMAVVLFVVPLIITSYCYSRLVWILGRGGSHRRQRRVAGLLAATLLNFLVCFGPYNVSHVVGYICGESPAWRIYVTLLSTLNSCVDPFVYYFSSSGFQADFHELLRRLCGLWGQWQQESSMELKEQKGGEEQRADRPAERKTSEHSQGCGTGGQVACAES
# male C57b1/6 mice = assay: Oral glucose tolerance test (oGTT); assay type: in vivo; conditions: p.o. 30 min before oral dextrose 3 g/kg, FIG. 8
# Experimental: For the oGTT, male C57b1/6 mice were fasted for about 18 hours and randomly grouped to receive the compounds indicated in FIG. 8 at the indicated doses, or vehicle (PET which contains 80% PEG, 10% Tween80, and 10% Ethanol). The indicated compound(s) were delivered orally via a gavage needle (p.o. volume at 100 μl). Thirty minutes after administration of the compound(s) or vehicle, mice were administered orally with dextrose at 3 g/kg dose. Levels of blood glucose were determined at several time points using Glucometer Elite XL (Bayer).
smiles,measurement,setting,value
CCC(=O)O [propionate],activation of GPR41,GPR41,activated
"CC1=C(C(=O)Nc2ccccc2C)C(c2ccoc2)C2=C(CCCC2=O)N1 (stereo not drawn) [Compound 4, 4-Furan-3-yl-2-methyl-5-oxo-1,4,5,6,7,8-hexahydro-quinoline-3-carboxylic acid o-tolylamide]",effect on the glycemic lowering effect of Compound B111 in the oGTT (plasma glucose),male C57b1/6 mice; used in conjunction with Compound B111,reversed the glycemic lowering effect of Compound B111
"CC(C)c1noc(C2CCN(c3ncnc(Nc4ccc(S(C)(=O)=O)cc4F)c3[N+](=O)[O-])CC2)n1 [Compound B111, (2-Fluoro-4-methanesulfonyl-phenyl)-{6-[4-(3-isopropyl-[1,2,4]oxadiazol-5-yl)-piperidin-1-yl]-5-nitro-pyrimidin-4-yl}-amine]",glycemic effect in the oGTT,male C57b1/6 mice; used alone,glycemic lowering effect
